Data from ChEMBL document CHEMBL5291721, “A preclinical secondary pharmacology resource illuminates target-adverse drug reaction associations of marketed drugs” (Nat Commun, 2023).

How the values were obtained:
[1] = target: Growth hormone secretagogue receptor type 1 (Homo sapiens, UniProt Q92847)
[2] = target: Sodium-dependent dopamine transporter (Homo sapiens, UniProt Q01959)
B2 bradykinin receptor = target: T1, B2 bradykinin receptor (Homo sapiens, UniProt P30411)
T1 sequence (P30411 whole entry): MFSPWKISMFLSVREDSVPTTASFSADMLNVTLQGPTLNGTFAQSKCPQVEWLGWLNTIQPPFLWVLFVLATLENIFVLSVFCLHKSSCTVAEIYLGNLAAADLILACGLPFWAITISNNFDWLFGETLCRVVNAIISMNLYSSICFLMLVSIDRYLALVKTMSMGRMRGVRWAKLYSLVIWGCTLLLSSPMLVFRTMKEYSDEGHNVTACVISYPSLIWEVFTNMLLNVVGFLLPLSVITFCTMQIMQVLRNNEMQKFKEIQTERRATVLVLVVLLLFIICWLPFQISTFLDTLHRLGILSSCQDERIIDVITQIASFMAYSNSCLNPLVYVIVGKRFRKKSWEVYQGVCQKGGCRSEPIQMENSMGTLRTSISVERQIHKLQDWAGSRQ

[3] = target: T2, Cholecystokinin receptor type A (Homo sapiens, UniProt P32238)
T2 sequence (P32238 whole entry): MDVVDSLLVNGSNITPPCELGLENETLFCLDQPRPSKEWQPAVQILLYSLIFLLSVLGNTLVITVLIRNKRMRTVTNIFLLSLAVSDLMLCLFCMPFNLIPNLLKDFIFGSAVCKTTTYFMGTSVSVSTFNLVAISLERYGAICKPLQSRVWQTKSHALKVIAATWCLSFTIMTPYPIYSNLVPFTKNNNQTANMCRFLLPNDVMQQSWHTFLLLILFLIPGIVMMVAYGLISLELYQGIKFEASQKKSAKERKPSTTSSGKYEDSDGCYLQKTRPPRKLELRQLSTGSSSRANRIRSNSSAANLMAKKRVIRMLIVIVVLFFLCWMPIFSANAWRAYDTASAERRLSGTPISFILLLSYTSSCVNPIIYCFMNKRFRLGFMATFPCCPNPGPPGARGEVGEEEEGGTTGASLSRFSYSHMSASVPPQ

[4] = target: T3, Alpha-2A adrenergic receptor (Homo sapiens, UniProt P08913); format: functional, cell-based
T3 sequence (P08913 whole entry): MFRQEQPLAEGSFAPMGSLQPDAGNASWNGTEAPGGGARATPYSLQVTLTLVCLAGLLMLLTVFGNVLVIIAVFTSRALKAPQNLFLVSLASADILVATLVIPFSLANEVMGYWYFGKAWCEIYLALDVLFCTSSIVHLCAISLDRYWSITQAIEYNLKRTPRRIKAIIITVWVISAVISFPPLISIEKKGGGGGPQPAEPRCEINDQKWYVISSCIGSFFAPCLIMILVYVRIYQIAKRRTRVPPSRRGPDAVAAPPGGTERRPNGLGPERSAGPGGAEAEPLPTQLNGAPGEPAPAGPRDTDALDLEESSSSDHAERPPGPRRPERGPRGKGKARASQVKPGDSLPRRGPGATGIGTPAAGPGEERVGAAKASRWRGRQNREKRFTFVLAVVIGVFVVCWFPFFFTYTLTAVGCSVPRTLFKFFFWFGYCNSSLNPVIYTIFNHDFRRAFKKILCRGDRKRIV

[5] = target: T4, Prostaglandin G/H synthase 1 (Rattus norvegicus, UniProt Q63921); format: functional
T4 sequence (Q63921 whole entry): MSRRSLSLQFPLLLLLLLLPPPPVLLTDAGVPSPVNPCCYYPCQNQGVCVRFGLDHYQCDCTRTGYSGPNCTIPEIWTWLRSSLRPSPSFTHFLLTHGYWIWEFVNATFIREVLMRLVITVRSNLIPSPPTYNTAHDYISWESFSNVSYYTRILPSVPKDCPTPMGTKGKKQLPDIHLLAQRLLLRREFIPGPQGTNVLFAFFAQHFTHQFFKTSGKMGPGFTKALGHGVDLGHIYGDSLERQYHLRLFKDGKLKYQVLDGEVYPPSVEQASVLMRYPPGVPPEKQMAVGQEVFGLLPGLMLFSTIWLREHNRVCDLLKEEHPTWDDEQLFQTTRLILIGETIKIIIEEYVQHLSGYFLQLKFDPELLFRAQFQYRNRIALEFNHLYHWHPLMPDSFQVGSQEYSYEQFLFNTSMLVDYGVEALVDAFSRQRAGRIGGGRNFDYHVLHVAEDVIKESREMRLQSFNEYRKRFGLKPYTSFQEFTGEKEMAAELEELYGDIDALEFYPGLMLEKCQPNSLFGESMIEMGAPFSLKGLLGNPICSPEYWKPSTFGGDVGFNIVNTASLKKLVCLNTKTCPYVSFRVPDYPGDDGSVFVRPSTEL

Thromboxane A2 receptor = target: T5, Thromboxane A2 receptor (Homo sapiens, UniProt P21731)
T5 sequence (P21731 whole entry): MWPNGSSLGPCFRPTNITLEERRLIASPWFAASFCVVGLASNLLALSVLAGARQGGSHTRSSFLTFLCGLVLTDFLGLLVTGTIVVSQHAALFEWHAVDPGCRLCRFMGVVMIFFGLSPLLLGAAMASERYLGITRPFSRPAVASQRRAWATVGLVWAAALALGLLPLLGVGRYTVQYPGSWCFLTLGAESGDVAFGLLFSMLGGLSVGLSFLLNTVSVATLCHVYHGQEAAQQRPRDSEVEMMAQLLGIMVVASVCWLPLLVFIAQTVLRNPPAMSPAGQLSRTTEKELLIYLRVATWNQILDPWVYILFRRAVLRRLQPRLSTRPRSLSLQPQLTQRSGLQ

Histamine H2 receptor = Histamine H2 receptor (Homo sapiens, UniProt P25021); format: functional, cell-based
Histamine H2 receptor, sequence (P25021 whole entry): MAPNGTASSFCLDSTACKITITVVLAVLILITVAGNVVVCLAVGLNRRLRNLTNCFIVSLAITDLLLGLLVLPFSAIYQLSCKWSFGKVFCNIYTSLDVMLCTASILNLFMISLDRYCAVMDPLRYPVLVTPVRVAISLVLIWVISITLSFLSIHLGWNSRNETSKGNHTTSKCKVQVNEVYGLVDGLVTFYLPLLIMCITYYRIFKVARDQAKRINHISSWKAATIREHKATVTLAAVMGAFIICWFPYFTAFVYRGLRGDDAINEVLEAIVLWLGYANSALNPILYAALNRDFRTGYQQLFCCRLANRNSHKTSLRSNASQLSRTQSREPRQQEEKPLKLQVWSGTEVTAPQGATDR

[6] = target: 5-hydroxytryptamine receptor 2B (Homo sapiens, UniProt P41595); format: functional, cell-based
5-hydroxytryptamine receptor 2B, sequence (P41595 whole entry): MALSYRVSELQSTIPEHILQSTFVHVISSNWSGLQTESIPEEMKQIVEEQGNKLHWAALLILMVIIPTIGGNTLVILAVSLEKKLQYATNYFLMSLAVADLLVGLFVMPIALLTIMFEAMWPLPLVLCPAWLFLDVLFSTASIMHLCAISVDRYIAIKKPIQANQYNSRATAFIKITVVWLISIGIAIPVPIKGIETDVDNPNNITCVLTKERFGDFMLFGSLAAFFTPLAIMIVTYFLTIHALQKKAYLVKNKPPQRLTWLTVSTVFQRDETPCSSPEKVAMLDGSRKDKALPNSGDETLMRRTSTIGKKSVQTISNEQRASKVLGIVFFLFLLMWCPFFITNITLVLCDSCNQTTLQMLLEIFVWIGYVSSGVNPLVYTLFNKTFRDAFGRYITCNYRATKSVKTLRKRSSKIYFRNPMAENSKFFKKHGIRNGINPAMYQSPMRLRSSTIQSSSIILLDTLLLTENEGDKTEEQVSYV

[7] = target: Neuronal acetylcholine receptor subunit alpha-4 (Homo sapiens, UniProt P43681)
Neuronal acetylcholine receptor subunit alpha-4, sequence (P43681 whole entry): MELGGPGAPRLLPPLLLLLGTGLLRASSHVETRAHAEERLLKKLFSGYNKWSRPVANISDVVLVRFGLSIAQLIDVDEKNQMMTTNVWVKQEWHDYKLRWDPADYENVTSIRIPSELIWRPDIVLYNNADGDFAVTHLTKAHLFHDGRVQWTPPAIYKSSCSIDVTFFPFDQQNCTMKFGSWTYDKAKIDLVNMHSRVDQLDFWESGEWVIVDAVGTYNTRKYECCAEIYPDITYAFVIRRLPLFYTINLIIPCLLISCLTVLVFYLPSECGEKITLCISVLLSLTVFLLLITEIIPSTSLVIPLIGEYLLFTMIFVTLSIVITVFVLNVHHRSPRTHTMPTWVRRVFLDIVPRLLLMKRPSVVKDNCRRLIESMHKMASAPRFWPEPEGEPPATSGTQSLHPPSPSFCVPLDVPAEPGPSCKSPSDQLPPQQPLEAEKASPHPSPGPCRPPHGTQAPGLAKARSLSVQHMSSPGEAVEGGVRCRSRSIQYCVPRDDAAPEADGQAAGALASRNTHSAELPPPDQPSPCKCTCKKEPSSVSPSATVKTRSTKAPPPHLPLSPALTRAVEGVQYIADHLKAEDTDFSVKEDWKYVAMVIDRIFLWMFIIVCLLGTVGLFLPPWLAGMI

[8] = target: Gamma-aminobutyric acid receptor subunit alpha-1 (Rattus norvegicus, UniProt P62813); format: functional
Gamma-aminobutyric acid receptor subunit alpha-1, sequence (P62813 whole entry): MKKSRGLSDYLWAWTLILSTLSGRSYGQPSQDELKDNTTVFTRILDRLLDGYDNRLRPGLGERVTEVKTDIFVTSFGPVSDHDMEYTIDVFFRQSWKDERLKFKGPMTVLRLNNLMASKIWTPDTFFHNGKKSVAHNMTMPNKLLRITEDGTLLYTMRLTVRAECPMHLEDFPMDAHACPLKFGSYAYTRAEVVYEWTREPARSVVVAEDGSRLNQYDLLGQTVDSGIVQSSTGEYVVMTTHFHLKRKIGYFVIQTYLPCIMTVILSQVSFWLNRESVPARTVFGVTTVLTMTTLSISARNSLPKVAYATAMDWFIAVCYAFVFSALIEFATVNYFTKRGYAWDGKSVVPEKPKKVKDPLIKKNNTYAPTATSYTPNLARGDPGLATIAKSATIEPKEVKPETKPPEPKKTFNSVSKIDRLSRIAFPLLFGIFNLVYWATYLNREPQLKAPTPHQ
Also: assay procedure not described here.

Sodium-dependent dopamine transporter, sequence (Q01959 whole entry): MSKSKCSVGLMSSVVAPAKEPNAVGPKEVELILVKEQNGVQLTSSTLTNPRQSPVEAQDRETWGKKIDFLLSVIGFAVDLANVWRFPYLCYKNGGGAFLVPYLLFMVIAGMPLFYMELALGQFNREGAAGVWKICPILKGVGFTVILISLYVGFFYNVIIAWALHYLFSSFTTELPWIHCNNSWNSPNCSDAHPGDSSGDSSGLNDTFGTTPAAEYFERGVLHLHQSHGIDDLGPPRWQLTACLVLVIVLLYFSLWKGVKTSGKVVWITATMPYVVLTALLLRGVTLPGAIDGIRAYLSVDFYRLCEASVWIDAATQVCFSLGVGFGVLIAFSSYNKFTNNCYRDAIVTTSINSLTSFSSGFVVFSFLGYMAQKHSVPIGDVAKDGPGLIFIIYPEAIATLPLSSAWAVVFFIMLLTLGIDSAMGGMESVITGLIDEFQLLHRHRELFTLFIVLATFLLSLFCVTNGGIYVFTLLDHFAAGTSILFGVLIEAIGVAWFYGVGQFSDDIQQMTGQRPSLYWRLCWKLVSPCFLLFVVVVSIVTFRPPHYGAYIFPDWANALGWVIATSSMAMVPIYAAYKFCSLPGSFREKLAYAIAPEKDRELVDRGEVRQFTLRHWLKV
Growth hormone secretagogue receptor type 1, sequence (Q92847 whole entry): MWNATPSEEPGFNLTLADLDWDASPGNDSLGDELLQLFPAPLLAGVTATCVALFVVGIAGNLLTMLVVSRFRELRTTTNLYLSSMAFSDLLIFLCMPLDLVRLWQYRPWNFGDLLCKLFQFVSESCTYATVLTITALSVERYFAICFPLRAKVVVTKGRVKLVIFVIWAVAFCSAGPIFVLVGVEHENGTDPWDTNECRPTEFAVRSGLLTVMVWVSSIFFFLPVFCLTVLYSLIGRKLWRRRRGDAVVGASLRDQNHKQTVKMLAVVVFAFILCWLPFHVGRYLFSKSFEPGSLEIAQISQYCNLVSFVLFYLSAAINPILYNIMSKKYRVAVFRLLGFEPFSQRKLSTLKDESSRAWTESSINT

SMILES	AC50 [1]	AC50 [2]	AC50 (B2 bradykinin receptor)	AC50 [3]	AC50 [4]	AC50 [5]	AC50 (Thromboxane A2 receptor)	AC50 (Histamine H2 receptor)	AC50 [6]	AC50 [7]	AC50 [8]
C[C@]12CC[C@H](O)CC1=CC[C@@H]1[C@@H]2CC[C@]2(C)C(c3cccnc3)=CC[C@@H]12 [ABIRATERONE]	> 30 µM	> 30 µM	> 30 µM	> 30 µM	> 10 µM	> 30 µM	> 30 µM	> 10 µM	> 10 µM	> 10 µM	> 10 µM
CN(C)C(=O)Oc1cc(OC(=O)N(C)C)cc(C(O)CNC(C)(C)C)c1 (configuration not stated) [BAMBUTEROL]	> 30 µM	> 30 µM	> 30 µM	> 30 µM	–	> 30 µM	> 30 µM	–	–	> 30 µM	–
C[C@H]1C[C@H]2[C@@H]3CCC4=CC(=O)C=C[C@]4(C)[C@@]3(Cl)[C@@H](O)C[C@]2(C)[C@@]1(O)C(=O)CO [BECLOMETHASONE]	> 30 µM	> 10 µM	> 30 µM	> 30 µM	–	> 30 µM	> 30 µM	–	–	> 10 µM	> 10 µM
NS(=O)(=O)c1cc(C2(O)NC(=O)c3ccccc32)ccc1Cl (configuration not stated) [CHLORTHALIDONE]	> 10 µM	> 10 µM	> 10 µM	> 10 µM	> 10 µM	> 10 µM	> 10 µM	> 10 µM	> 10 µM	> 10 µM	> 10 µM
C[C@@H]1CCC[C@H](C)N1NC(=O)c1ccc(Cl)c(S(N)(=O)=O)c1 [CLOPAMIDE]	> 30 µM	> 30 µM	> 30 µM	> 30 µM	> 30 µM	> 30 µM	> 30 µM	> 30 µM	> 30 µM	> 30 µM	> 30 µM
COc1ccc2c(c1)[C@]13CCCC[C@@H]1[C@H](C2)N(C)CC3 [DEXTROMETHORPHAN]	> 30 µM	> 10 µM	> 30 µM	> 30 µM	> 10 µM	> 30 µM	> 30 µM	> 10 µM	> 10 µM	> 10 µM	> 10 µM
O=c1oc2ccccc2c(O)c1Cc1c(O)c2ccccc2oc1=O [DICUMAROL]	> 10 µM	> 10 µM	> 10 µM	> 10 µM	> 10 µM	> 30 µM	> 10 µM	> 10 µM	> 10 µM	> 10 µM	> 10 µM
O=C(O)CSCC(=O)NC1CCSC1=O (configuration not stated) [ERDOSTEINE]	> 30 µM	> 30 µM	> 30 µM	> 30 µM	> 30 µM	> 30 µM	> 30 µM	> 30 µM	> 30 µM	> 30 µM	> 30 µM
COc1cccc(N(C)C(=S)Oc2ccc3c(c2)CCCC3)n1 [LIRANAFTATE]	> 30 µM	> 30 µM	> 30 µM	> 30 µM	> 30 µM	> 30 µM	> 30 µM	> 30 µM	> 30 µM	> 30 µM	> 30 µM
C#C[C@]1(O)CC[C@H]2[C@@H]3CCc4cc(OC)ccc4[C@H]3CC[C@@]21C [MESTRANOL]	> 10 µM	20 µM	> 10 µM	> 10 µM	> 10 µM	> 10 µM	> 10 µM	> 30 µM	> 10 µM	> 10 µM	> 10 µM
N=C(N)c1ccc2cc(OC(=O)c3ccc(N=C(N)N)cc3)ccc2c1 [NAFAMOSTAT]	21 µM	2.8 µM	> 30 µM	> 30 µM	> 30 µM	> 30 µM	> 30 µM	> 30 µM	29 µM	> 30 µM	> 30 µM
CNC(=O)Oc1ccc2c(c1)[C@]1(C)CCN(C)[C@@H]1N2C [PHYSOSTIGMINE]	> 30 µM	> 30 µM	> 30 µM	> 30 µM	> 30 µM	> 30 µM	> 30 µM	> 30 µM	> 30 µM	> 30 µM	> 30 µM
O=C(O)c1cc(O)c2c3nc4ccccc4oc-3cc(=O)c2n1 [PIRENOXINE]	> 30 µM	> 30 µM	> 30 µM	5.1 µM	> 30 µM	> 30 µM	> 30 µM	> 30 µM	> 30 µM	> 30 µM	> 30 µM
NS(=O)(=O)c1cc(C(=O)O)cc(N2CCCC2)c1Oc1ccccc1 [PIRETANIDE]	> 30 µM	> 30 µM	> 30 µM	> 30 µM	> 30 µM	> 30 µM	> 30 µM	> 30 µM	> 30 µM	> 30 µM	> 30 µM
CNCCCC1c2ccccc2C=Cc2ccccc21 [PROTRIPTYLINE]	> 10 µM	17.8 µM	> 10 µM	> 10 µM	> 10 µM	> 10 µM	> 10 µM	> 10 µM	3.8 µM	> 10 µM	> 10 µM
CC(C)=CCOc1ccc(/C=C/C(=O)c2ccc(OCC=C(C)C)cc2OCC(=O)O)cc1 [SOFALCONE]	> 30 µM	13 µM	> 3 µM	> 30 µM	> 30 µM	> 30 µM	13 µM	> 30 µM	> 30 µM	> 30 µM	> 30 µM
O=C(CCCN1CCC2(CC1)C(=O)NCN2c1ccccc1)c1ccc(F)cc1 [SPIPERONE]	> 10 µM	7.2 µM	> 30 µM	> 30 µM	4.5 µM	> 30 µM	> 30 µM	> 30 µM	–	> 30 µM	> 30 µM
CCSc1ccc2c(c1)N(CCCN1CCN(C)CC1)c1ccccc1S2 [THIETHYLPERAZINE]	–	15 µM	–	–	–	> 30 µM	–	–	–	> 3 µM	–
